Reference: patent publication US20260041660A1 (priority 2020, published 2026)

Key:
PKC = assay: Inventors' studies: TPA effect on PKC; format: biochemical
Text: (§1) More complex effects of TPA on MAPK pathways involve TPA regulation of immune cell differentiation and apoptosis.

[1] = format: in vivo, C57Bl/6 mouse
MAPK = assay: Inventors' studies: TPA effect on MAPK hyper-stimulation; format: cell-based; settings: reduced MAPK activation and phosphorylation activity
Text: as §1

[2] = test system: peripheral blood lymphocytes (predominantly T-cells); assay: Pilot studies: effect of TPA on peripheral blood lymphocytes; format: cell-based
Text: In addition to minimizing hyper-inflammatory activities of macrophages and neutrophils, TPA compositions and methods of the invention mediate protection of lymphocytes (prolongation of lifespan), and also directly stimulate lymphocyte proliferation and differentiation. […] This activity will protect and expand lymphocyte numbers, which in turn will mediate potent anti-viral effects.
(§2) The instant disclosure, in conjunction with ongoing pilot studies by the inventors, illustrates a wide range of pro-immune and anti-inflammatory effects of TPA that will potently mediate reduction and/or prevention of ARDS conditions and symptoms, as well as other pathogenic conditions and symptoms associated with severe COVID-19 disease. […] Exemplary pilot studies have shown that TPA compounds will effectively treat and prevent lymphocytopenia, by virtue that these compounds promote full range of pro-immune effects relating to activation, proliferation and survival of lymphocytes. […] Neutrophils are evidently “hijacked” and reprogrammed by SARS-COV-2 proteins (and other emergent pro-inflammatory factors that emerge in the course of COVID-19 disease development), leading to profound dysregulation of neutrophil immune and inflammatory activities. […]

MAPK and JAK = assay: TPA pro-apoptotic effects via immune-regulatory kinases; format: cell-based; settings: through interactions with MAPK and JAK
Text: as §2

[3] = test system: murine peritoneal macrophages; settings: via suppression of ERK1/2 signaling; cited from earlier work
IL-6 = settings: in vitro and in vivo; Stat3, Akt, ERK1/2 pathways; cited from earlier work
[4] = polar organic solvents and water; cited from earlier work
HIN1 = settings: reducing infiltration of inflammatory cells, inhibiting pro-inflammatory cytokines; cited from earlier work
SARS-COV-2 [5] = settings: recent in vitro studies; cited from earlier work
SARS-COV-2 [6] = settings: after 48 h of infection with SARS-COV-2; cited from earlier work
COVID-19 = settings: human, in vivo; cited from earlier work

## CCCCCCCCCCCCCC(=O)O[C@@H]1[C@H](C)[C@@]2(O)[C@@H](C=C(CO)C[C@]3(O)C(=O)C(C)=C[C@@H]23)[C@@H]2C(C)(C)[C@]12OC(C)=O (stereo in doubt) [TPA, 12-O-tetradecanoylphorbol-13-acetate]
PKC
  effect on PKC: not only activates, but stabilizes PKC
[1]; 48 hrs
  TNFα content in BALF samples: reduction of TNFα content
  protein extravasation in BALF samples: reduction of protein extravasation in BALF samples
[1]; after 48 hours
  ROS generation of lavaged neutrophils: significant reduction in ROS generation
[1]; mouse, in vivo
  BALF WBC ROS production: significantly lower
  LPS-induced EBD extravasation: suppression of LPS-induced EBD extravasation
  hyper-elevation of IL-6, IL-10, TNFα, MIP2 and other pro-inflammatory cytokines: block or reduce hyper-elevation
  monocyte/macrophage and neutrophil counts: reduction in monocyte/macrophage and neutrophil counts
  neutrophil and RBC into pulmonary interstitial spaces and alveolar airspaces: marked reduction in neutrophil and RBC
  presence of neutrophils in BALF: significantly reduced
  swelling of the alveolar walls: reduced swelling of the alveolar walls
[1]; mouse, in vivo, iv
  histopathologic changes of the lung: markedly suppressed
MAPK
  MAPK hyper-stimulation: clinically beneficial reduction in MAPK hyper-stimulation
[2]
  mitogenic effect on peripheral blood lymphocytes: direct, clinically effective mitogenic effect
MAPK and JAK
  apoptotic effects: pro-apoptotic effects

## C=C1CC[C@@H]2[C@](C)(CO)[C@H](O)CC[C@@]2(C)[C@@H]1C/C=C1/C(=O)OC[C@H]1O [Andrographolide]
[3]
  production of TNF-α and interleukin-12: inhibits the production of TNF-α and interleukin-12
IL-6
  IL-6 production and IL-6 hyper-inflammatory signaling: inhibits IL-6 production and suppresses IL-6 hyper-inflammatory signaling in a dose-dependent manner

## CC1=C[C@H]2[C@@]3(O)[C@H](C)[C@@H](O)[C@]4(O)[C@H]([C@@H]3C=C(CO)C[C@]2(O)C1=O)C4(C)C [Phorbol]
[4]
  solubility: well soluble in most polar organic solvents and in water

## O=C1CCC(N2C(=O)c3ccccc3C2=O)C(=O)N1 (stereo not shown) [Thalidomide]
HIN1
  treatment of infected mice: effective in treating HIN1-infected mice

## CCN(CCO)CCCC(C)Nc1ccnc2cc(Cl)ccc12 (stereo not shown) [hydroxychloroquine]
SARS-COV-2 [5]
  viral load/titer of SARS-COV-2: effectively reduces viral load/titer of SARS-COV-2

## Ivermectin
SARS-COV-2 [6]
  reduce viral RNA: up to 5,000 fold

## TCZ: recombinant human anti-IL-6 monoclonal antibody that binds soluble and membrane-bound IL-6 receptors
COVID-19
  fever and other ARDS symptoms: reduces fever and other ARDS symptoms
  patients with opacity lung lesion on CT scans absorbed: 90.5%
  patients with peripheral lymphocyte levels returned to normal: 52.6%
  treated subjects showing improved oxygenation: 75.0%
